For one series, the system named is K. pneumoniae 700603. The format is cell-based. To be noted: 700603, 18 h. How it is done:
(§1) The antibacterial activities of each peptide were determined against various Gram-negative and Gram-positive bacteria using minimum inhibitory concentration (MIC) assays. The MIC is defined as the lowest concentration of peptide that prevents growth of bacteria using the optical density at 600 nm under standard growth conditions.
(§2) Bacteria were streaked from frozen stocks onto Difco LB-miller agar (BD, Franklin Lakes, NJ, USA) plates (E. coli MG1655 ATCC 47076, E. coli D31 [34], S. aureus ATCC25923, P. aeruginosa ATCC10145, K. pneumoniae 700603). Streaked plates were grown overnight at 37 °C and subsequently stored at 4 °C.
(§3) To prepare overnight cultures, a single colony of each bacterial strain was added to LB broth (Difco) in sterile culture tubes. Tubes were placed in the shaking incubator at 37 °C overnight to allow for sufficient bacterial growth. After incubation, dilutions of the overnight culture were made in LB (1:100) or Muller-Hinton broth (Criterion) (1:250) for MIC assay protocols (Hardy Diagnostics, Santa Maria, CA, USA).
(§4) Minimal inhibitory concentrations (MIC) were determined for each peptide The MIC assay was set up by adding 10 µL of the peptide stock solutions to wells of a sterile 96-well plate to which […] of diluted bacterial culture was added. The final bacterial load was ~5.0 × 10^5 cfu/mL as calculated from the Optical Density^@ 600 nm (OD600) measurements of a log-phase culture. The assay plate was incubated at 37 °C for 18 h. Bacterial growth was assayed by absorbance at OD600 using Multiskan microplate reader (Thermo Fisher, Waltham, MA, USA). […] All MIC values are averages of at least triplicate samples.

Another series relates to E. coli. Type of series: cell-based. To be noted: 18 h. How it is done: as §1, §2, §3, §4
Another series relates to S. aureus ATCC25923. The format is cell-based. To be noted: ATCC25923, 18 h. How it is done:
as §1, §2, §3, §4

A further series relates to HEK-293 cells. The experiment in a line: Mammalian cell viability, MTT assay. The format is cell-based, Human. To be noted: HEK-293, MTT, 24 h, 37 °C, triplicate. How it is done:
The cells were treated with five different concentrations of each peptide ranging from 0.0015 µM to 15 µM for a total of 24 h before viability measurements were performed.
Figure 6 Mammalian cell viability assay—Effects of AP3 peptides on HEK-293 cell viability assayed by MTT metabolic breakdown. A standard density of HEK-293 cells was incubated with serially diluted peptides for 24 h at 37 °C before the assay was performed. Percent viability was normalized to MTT breakdown observed in untreated controls. Color coding of the graph is AP3 (red), AP3K (blue), APX (purple), APX-17 (black), and APX-12 (green). All data represent the average of at least three replicates and error bars represent the standard deviation.
Cellular toxicity of specific peptides was determined by MTT ((3-(4,5-Dimethylthiazol-2-yl)-2,5-Diphenyltetrazolium Bromide)) assay. Human embryonic kidney (HEK) 293 cells with a lenti-CRE luciferase reporter gene were seeded in 96-well plates at a density of 1.5 × 10^4 cells per well and incubated with 5% CO2 at 37 °C for 24 h. Then, cells were treated with appropriate concentrations of peptides (0.0015–15 µM) and control for 24 h. After treatment for 24 h, 10 µL of MTT solution (5 mg MTT/mL PBS) was added to all wells and incubated for 4 h. Then, DMSO was added as a solubilizing agent and the absorbance was recorded at 540 nm. Each peptide concentration was performed in triplicate.
A general note: Formazan colour is commonly taken as a measure of viable cells.

Another series deals with P. aeruginosa ATCC10145. Type of series: cell-based. To be noted: ATCC10145, 18 h. How it is done:
as §1, §2, §3, §4

No end group written: not given here.

As usually defined, the MIC is the least concentration at which growth counts as inhibited. A lower MIC goes with greater potency.

GWRTLLKKAEVKTVGKLALKHYL-NH2 [AP3]: the MIC in the series with K. pneumoniae 700603 was found to be 4.15 µM; with E. coli it was 8.3 µM; against S. aureus ATCC25923, 4.15 µM. The “cytotoxicity, dead cells” value in the series with HEK-293 cells (1.5 µM peptide) is reported as ~ 18%.

For GYRTLLKKAEVKTVGKLALKHWL-NH2 [APX], the MIC against P. aeruginosa ATCC10145 was 15 µM; against K. pneumoniae 700603 it was >15.0 µM; with E. coli, >15.0 µM; in the series with S. aureus ATCC25923, 15 µM.

For KKAEVKTVGKLALKHWL-NH2 [APX-17], the MIC in the series on P. aeruginosa ATCC10145, in the series on K. pneumoniae 700603, in the series with E. coli and in the series with S. aureus ATCC25923 was >8.00 µM each time.

As to GWKTLLKKAEVKTVGKLALKHYL-NH2 [AP3K], the MIC was 0.29 µM against P. aeruginosa ATCC10145, >9.30 µM against K. pneumoniae 700603, 9.3 µM against E. coli and 2.32 µM in the series on S. aureus ATCC25923. The “cytotoxicity, dead cells” value in the series with HEK-293 cells (1.5 µM peptide) is recorded as ~ 18%; in the series on HEK-293 cells (15 µM peptide) it was ~ 40%.

For the substance KTVGKLALKHWL-NH2 [APX-12], the MIC against P. aeruginosa ATCC10145, with K. pneumoniae 700603, in the series on E. coli and in the series on S. aureus ATCC25923 was >15.0 µM each time.

Source of the values: article PMC6466588, “Characterization and Antimicrobial Activity of Amphiphilic Peptide AP3 and Derivative Sequences” (Antibiotics, 2019).
